Assay [1] relates to HCT116 cells. The assay is described as follows: Growth inhibitory activity using HCT116 cells (Cell Titer-Glo). The format is cell-based, human. As to conditions: compound 1 μM, 3 days; for inhibition at 1 µM: Homo sapiens, HCT-116, 72 h, read-out: Cell growth inhibition ratio at compound concentration of 1 μM. The protocol:
HCT 116 cells (ATCC) were seeded in a 384-well plate at a density of 6×10^2 cells/well, and cultured overnight in a cell culture medium McCoy's 5A (Thermo Fisher Scientific) containing 10% FBS (fetal bovine serum) and 1% penicillin/streptomycin. The dissolved test compound was added in the cell medium, and the cell medium was left standing in a CO2 incubator (37° C.) for 3 days. A Cell Titer-Glo solution (Promega Corporation) was added, the mixture was stirred at room temperature for 10 minutes, and the emission value was measured by Envision (PerkinElmer). The inhibition ratio (%) of HCT116 cell growth by the test compound was calculated in accordance with the following expression. Inhibition ratio (%)=(1−(count of test compound−blank)÷(control−blank))×100
The count of the HCT116 cell suspension without addition of the compound was described as a control, and the count without addition of the compound and addition of HCT116 cells was described as a blank. The concentration at which the inhibition ratio was 50% was defined as an IC50 value.
A general note: In ATP-based viability assays light output follows the ATP content of the culture.

The target in assay [2] is T1, CLK2 enzyme (Homo sapiens, UniProt P49760).
T1 construct: purchased Thermo Fisher Scientific
The assay is described as follows: Measurement of CLK2 inhibitory activity (LANCE time-resolved fluorescence, ULight-labeled MBP peptide). The assay is classed as biochemical. As to conditions: compound 1 μM; for inhibition at 1 µM: ATP 1 mM, read-out: CLK2 activity inhibition ratio at compound concentration of 1 μM (ATP 1 mM). The protocol:
A test compound dissolved in DMSO was added to a reaction solution (50 mM HEPES (pH: 7.5), 10 mM MgCl2, 1 mM EGTA, 2 mM DTT, 0.01% Tween 20, 0.01% BSA) containing a CLK2 enzyme (Thermo Fisher Scientific) and an ULight-labeled MBP peptide (PerkinElmer), and the mixture was then reacted at room temperature for 10 minutes. An ATP solution was added to a final concentration of 1 mM to initiate an enzyme reaction, and the reaction was carried out at room temperature for 60 minutes. A europium-labeled anti-phosphorylated MBP antibody (PerkinElmer) and a LANCE Detection buffer (PerkinElmer) containing EDTA with a final concentration of 20 mM were added to stop the reaction, the mixture was left standing for 60 minutes, and the time-resolved fluorescence value (excitation 320 nm, and emission 615 nm and 665 nm) was measured by Envision (PerkinElmer). The inhibition ratio (%) of CLK2 by the test compound was calculated in accordance with the following expression. Inhibition ratio (%)=(1−(count of test compound−blank)÷(control−blank))×100
The count of the CLK2 enzyme reaction solution without addition of the compound was described as a control, and the count without addition of the compound and addition of the CLK2 enzyme was described as a blank. The concentration at which the inhibition ratio was 50% was defined as an IC50 value.
In general terms: Time-resolved FRET reads energy transfer from a long-lived donor to a nearby acceptor.

From patent publication US10577382B2, “Fused heterocyclic compound” (TAKEDA PHARMACEUTICAL COMPANY LIMITED, priority 2016, dated 2020) come the findings set out here.

SMILES strings stand for the structures.

T1 sequence (P49760 whole entry): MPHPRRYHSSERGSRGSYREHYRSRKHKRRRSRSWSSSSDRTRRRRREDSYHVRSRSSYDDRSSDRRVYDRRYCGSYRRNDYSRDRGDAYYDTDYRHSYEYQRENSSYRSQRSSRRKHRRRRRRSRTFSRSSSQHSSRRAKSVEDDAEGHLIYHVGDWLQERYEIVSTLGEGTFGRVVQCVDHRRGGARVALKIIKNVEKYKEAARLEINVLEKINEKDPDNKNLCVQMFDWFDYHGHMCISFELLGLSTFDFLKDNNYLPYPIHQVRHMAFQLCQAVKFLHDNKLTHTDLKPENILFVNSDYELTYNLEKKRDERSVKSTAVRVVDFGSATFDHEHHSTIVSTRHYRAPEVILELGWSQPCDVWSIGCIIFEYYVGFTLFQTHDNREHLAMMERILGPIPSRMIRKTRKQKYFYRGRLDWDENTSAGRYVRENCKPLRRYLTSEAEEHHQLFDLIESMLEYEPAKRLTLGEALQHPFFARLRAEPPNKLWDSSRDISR

As for `COc1ncnc2ccn(-c3cnc4nc(C)n(Cc5cc(F)cc(F)c5)c4c3)c12` [Example 7, 1-(3,5-difluorobenzyl)-6-(4-methoxy-5H-pyrrolo[3,2-d]pyrimidin-5-yl)-2-methyl-1H-imidazo[4,5-b]pyridine], the inhibition at 1 µM was determined as 92% in assay [1] and 100% in assay [2].
Take `COc1ccnc2ccn(-c3cnc4nc(C)n(Cc5cccc(F)c5)c4c3)c12` [Example 102, 1-(3-fluorobenzyl)-6-(7-methoxy-1H-pyrrolo[3,2-b]pyridin-1-yl)-2-methyl-1H-imidazo[4,5-b]pyridine]: the inhibition at 1 µM was found to be 95% in assay [1] and 100% in assay [2].
In the case of `COc1ccnc2cnn(-c3cnc4nc(C)n(Cc5cccc(F)c5)c4c3)c12` [Example 105, 1-(1-(3-fluorobenzyl)-2-methyl-1H-imidazo[4,5-b]pyridin-6-yl)-7-methoxy-1H-pyrazolo[4,3-b]pyridine], the inhibition at 1 µM in assay [1] came out at 96%; in assay [2], 100%.
Taken in the same sequence, the figures for `COc1cnc2ccn(-c3cnc4nc(C)n(Cc5cccc(F)c5)c4c3)c2n1` [Example 110, 1-(3-fluorobenzyl)-6-(3-methoxy-5H-pyrrolo[2,3-b]pyrazin-5-yl)-2-methyl-1H-imidazo[4,5-b]pyridine] were 92% and 100%.
On to `COc1nc2ncc(-n3ccc4ncc(C(C)O)nc43)cc2n1Cc1cccc(F)c1` (stereo not shown) [Example 160, 1-(5-(1-(3-fluorobenzyl)-2-methoxy-1H-imidazo[4,5-b]pyridin-6-yl)-5H-pyrrolo[2,3-b]pyrazin-3-yl)ethanol], for which the “Cell growth inhibition ratio at compound concentration of 1 μM” value in assay [1] came out at 98%. Also, in assay [2], the “CLK2 activity inhibition ratio at compound concentration of 1 μM (ATP 1 mM)” value was 100%.
Turning to `COc1nc2ncc(-n3ccc4ncc(C(C)O)nc43)cc2n1Cc1cccc(F)c1` (stereo not shown) [Example 161, 1-(5-(1-(3-fluorobenzyl)-2-methoxy-1H-imidazo[4,5-b]pyridin-6-yl)-5H-pyrrolo[2,3-b]pyrazin-3-yl)ethanol], the inhibition at 1 µM in assay [1] is 97%; in assay [2], 100%.
Consider `COc1ncnn2ccc(-c3cnc4nc(C)n(Cc5cccc(F)c5)c4c3)c12` [Example 175, 1-(3-fluorobenzyl)-6-(4-methoxypyrrolo[2,1-f][1,2,4]triazin-5-yl)-2-methyl-1H-imidazo[4,5-b]pyridine], for which the inhibition at 1 µM in assay [1] turned out to be 91%; in assay [2], 100%.
Taken in the same sequence, the figures for `COc1ncnn2ccc(-c3cnc4nc(CO)n(Cc5cc(F)cc(F)c5)c4c3)c12` [Example 176, (1-(3,5-difluorobenzyl)-6-(4-methoxypyrrolo[2,1-f][1,2,4]triazin-5-yl)-1H-imidazo[4,5-b]pyridin-2-yl)methanol] were 85% and 100%.
`COc1ncnn2ccc(-c3cnc4nc(C)n(Cc5nc(C)no5)c4c3)c12` [Example 186, 6-(4-methoxypyrrolo[2,1-f][1,2,4]triazin-5-yl)-2-methyl-1-((3-methyl-1,2,4-oxadiazol-5-yl)methyl)-1H-imidazo[4,5-b]pyridine]: the inhibition at 1 µM in assay [1] was 96%; in assay [2], 99%.
Consider `COc1ncnn2ccc(-c3cnc4nc(C)n(Cc5nnc(C)o5)c4c3)c12` [Example 193, 6-(4-methoxypyrrolo[2,1-f][1,2,4]triazin-5-yl)-2-methyl-1-((5-methyl-1,3,4-oxadiazol-2-yl)methyl)-1H-imidazo[4,5-b]pyridine], for which the inhibition at 1 µM came to 98% in assay [1] and 100% in assay [2].
Taken in the same sequence, the figures for `COc1ncnn2ccc(-c3cnc4nc(C)n(Cc5noc(C)n5)c4c3)c12` [Example 214, 6-(4-methoxypyrrolo[2,1-f][1,2,4]triazin-5-yl)-2-methyl-1-((5-methyl-1,2,4-oxadiazol-3-yl)methyl)-1H-imidazo[4,5-b]pyridine] were 96% and 99%.
On to `COc1ncnn2ccc(-c3cnc4nc(C)n(Cc5cc(C)no5)c4c3)c12` [Example 215], for which the inhibition at 1 µM in assay [1] is 95%; in assay [2], 100%.
On to `COc1ncnn2ccc(-c3cnc4nc(C)n(Cc5nc(C)ns5)c4c3)c12` [Example 229, 6-(4-methoxypyrrolo[2,1-f][1,2,4]triazin-5-yl)-2-methyl-1-((3-methyl-1,2,4-thiadiazol-5-yl)methyl)-1H-imidazo[4,5-b]pyridine], for which the inhibition at 1 µM in assay [1] was determined as 97%; in assay [2] it was 100%.
Take `COc1ncnn2ccc(-c3cnc4nc(C)n(Cc5nnc(C(F)F)o5)c4c3)c12` [Example 242, 1-((5-(difluoromethyl)-1,3,4-oxadiazol-2-yl)methyl)-6-(4-methoxypyrrolo[2,1-f][1,2,4]triazin-5-yl)-2-methyl-1H-imidazo[4,5-b]pyridine]: the inhibition at 1 µM was found to be 94% in assay [1] and 100% in assay [2].
For `COc1ncnn2ccc(-c3cnc4nc(C)n(Cc5nnc(C(C)(F)F)o5)c4c3)c12` [Example 274], the inhibition at 1 µM in assay [1] worked out at 93%; in assay [2], 100%.
Taken in the same sequence, the figures for `COc1ncnn2ccc(-c3cnc4nc(C)n(Cc5nnc(C(C)(C)F)o5)c4c3)c12` [Example 277, 1-((5-(2-fluoropropan-2-yl)-1,3,4-oxadiazol-2-yl)methyl)-6-(4-methoxypyrrolo[2,1-f][1,2,4]triazin-5-yl)-2-methyl-1H-imidazo[4,5-b]pyridine] were 95% and 100%.
`COc1ncnn2ccc(-c3cnc4nc(C)n(Cc5nnc(C6(F)CC6)o5)c4c3)c12` [Example 283, 1-((5-(1-fluorocyclopropyl)-1,3,4-oxadiazol-2-yl)methyl)-6-(4-methoxypyrrolo[2,1-f][1,2,4]triazin-5-yl)-2-methyl-1H-imidazo[4,5-b]pyridine]: the inhibition at 1 µM in assay [1] stood at 96%; in assay [2], 100%.
